A short description of data set [1]: Inhibition of pig heart MDH using malic acid as substrate preincubated for 10 mins followed by substrate addition measured up to 5 mins by resorufin-based fluorescence assay. Details: species or system Sus scrofa.
Data set [2] has as its target Isocitrate dehydrogenase [NADP] cytoplasmic (Homo sapiens, UniProt O75874). The data set is described as follows: Inhibition of wild type IDH1 (unknown origin) using isocitrate as substrate preincubated for 30 mins followed by substrate addition in presence of NADP+ measured up to 5 mins by resorufin-based fluorescence assay.
A short description of data set [3]: Drug level in human A673 cells by LC-MS/MS analysis. It counts as ADME, cell-based.
Data set [4] is described as follows: Drug level in human MIAPaCa2 cells by LC-MS/MS analysis. The data set is classed as ADME, cell-based. The following applies: mia paca-2.
For data set [5], the target named is T1, L-lactate dehydrogenase (Homo sapiens, UniProt V9HWB9). Briefly: Inhibition of LDH in human A673 cells assessed as reduction in lactate production preincubated for 2 hrs measured after 30 mins by high throughput fluorescence assay. It counts as cell-based.
Data set [6] has as its target T1, L-lactate dehydrogenase. The data set is described as follows: Inhibition of LDH in human MIAPaCa2 cells assessed as reduction in lactate production preincubated for 2 hrs measured after 30 mins by high throughput fluorescence assay. The data set is classed as cell-based.
The target in data set [7] is T2, L-lactate dehydrogenase A chain (Homo sapiens, UniProt P00338).
Description: Inhibition of human liver LDHA using sodium pyruvate as substrate after 5 mins in presence of NAPDH and in absence of EDTA by diaphorase/resazurin based fluorescence assay
The target of data set [8] is T2, L-lactate dehydrogenase A chain. This is another data set of the same source.
Description: Inhibition of human liver LDHA using sodium pyruvate as substrate after 5 mins in presence of NAPDH and EDTA by diaphorase/resazurin based fluorescence assay

Activity calls are given as the source filed them. The calls are words filed in the database; no cut-off is given here.

Chain of Isocitrate dehydrogenase [NADP] cytoplasmic (O75874 whole entry): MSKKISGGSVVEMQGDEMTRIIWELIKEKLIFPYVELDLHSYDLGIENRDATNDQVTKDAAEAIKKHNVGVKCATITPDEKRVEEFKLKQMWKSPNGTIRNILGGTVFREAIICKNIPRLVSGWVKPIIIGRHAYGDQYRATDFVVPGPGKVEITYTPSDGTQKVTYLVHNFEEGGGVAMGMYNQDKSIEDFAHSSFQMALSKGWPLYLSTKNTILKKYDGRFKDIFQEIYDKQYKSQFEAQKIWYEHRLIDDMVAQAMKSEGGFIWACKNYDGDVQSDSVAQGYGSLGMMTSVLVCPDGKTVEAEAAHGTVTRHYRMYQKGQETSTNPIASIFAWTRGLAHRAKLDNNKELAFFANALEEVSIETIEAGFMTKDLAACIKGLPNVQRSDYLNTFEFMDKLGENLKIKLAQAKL

With `O=C1N[C@](c2ccc(N3CCOCC3)cc2)(c2ccsc2)CC(O)=C1Sc1ccccc1Cl`, the IC50 in data set [1] and in data set [2] was over 57 µM each time. Also, the Drug uptake result in data set [3] and in data set [4] was “Active” throughout.
In the case of `NS(=O)(=O)c1ccc(Cc2c(-c3ccccc3)nn(-c3nc(C(=O)O)cs3)c2CC2CC2)cc1`, the IC50 – broadly, the concentration that inhibits the measured activity by half – in data set [1] is over 57 µM; in data set [2] it was 47.4 µM. Besides, the Drug uptake result in data set [3] and in data set [4] was “Active” each time.
As to `NS(=O)(=O)c1ccc(Cc2cn(-c3nc(C(=O)O)cs3)nc2-c2cccc(-c3ccccc3)c2)cc1`, the IC50 in data set [1] amounted to 48.6 µM; in data set [2] it was 47.4 µM. Moreover, the Drug uptake result in data set [3] and in data set [4] was “Active” throughout.
As to `NS(=O)(=O)c1ccc(Nc2cn(-c3nc(C(=O)O)cs3)nc2-c2cccc(-c3ccccc3)c2)cc1`, the IC50 is 37.8 µM in data set [1] and over 57 µM in data set [2]. Also, the Drug uptake entry in data set [3] and in data set [4] was “Active” throughout.
Turning to `Nc1c(Cc2ccc(S(N)(=O)=O)cc2)c(-c2cccc(-c3ccccc3)c2)nn1-c1nc(C(=O)O)cs1`, the half-maximal inhibitory concentration (IC50) is 26.8 µM in data set [1] and over 57 µM in data set [2]. Besides, the Drug uptake result in data set [3] and in data set [4] was “Active” throughout.
For the compound `NS(=O)(=O)c1ccc(Oc2c(-c3cccc(-c4ccccc4)c3)nn(-c3nc(C(=O)O)cs3)c2C2CC2)cc1`, in data set [1], the IC50 was over 57 µM. The Drug uptake entry in data set [3] and in data set [4] was “Active” in each case.
For the compound `NS(=O)(=O)c1ccc(Nc2cn(-c3nc(C(=O)O)cs3)nc2-c2ccccc2)cc1`, the IC50 in data set [1] and in data set [2] was over 57 µM in each case. The Drug uptake entry in data set [3] and in data set [4] was “Active” in each case.
Consider `NS(=O)(=O)c1ccc(Cc2c(-c3cccc(-c4ccccc4)c3)nn(-c3nc(C(=O)O)cs3)c2C(F)(F)F)cc1`, for which the 50% inhibitory concentration (IC50) is 48.6 µM in data set [1] and 33.5 µM in data set [2]. Besides, the Drug uptake entry in data set [3] and in data set [4] was “Active” each time.
For `NS(=O)(=O)c1ccc(Cc2c(-c3ccccc3)nn(-c3nc(C(=O)O)cs3)c2C2CC2)cc1`, the IC50 in data set [1] is 37.8 µM; in data set [2], over 57 µM. Also, the Drug uptake result in data set [3] and in data set [4] was “Active” each time.
As for `NS(=O)(=O)c1ccc(Cc2c(-c3ccccc3)nn(-c3nc(C(=O)O)cs3)c2-c2cccnc2)cc1`, the 50% inhibitory concentration (IC50) in data set [1] and in data set [2] was over 57 µM each time. Further, the Drug uptake result in data set [3] and in data set [4] was “Active” each time.
Regarding `NS(=O)(=O)c1ccc(Cc2c(-c3cccc(-c4ccccc4F)c3)nn(-c3nc(C(=O)O)cs3)c2O)cc1`, in data set [2], the IC50 was over 57 µM. Besides, the Drug uptake entry in data set [3] and in data set [4] was “Active” each time.
Take `O=C(O)c1csc(-n2nc(-c3ccc(F)cc3F)cc2O)n1`: the inhibition result in data set [5] and in data set [6] was “inactive” in each case. The half-maximal inhibitory concentration (IC50) is 0.084 µM in data set [7] and over 57 µM in data set [8].
As for `O=C(O)c1csc(-n2nc(-c3ccc(F)cc3)cc2O)n1`, the inhibition entry in data set [5] and in data set [6] was “inactive” each time. Moreover, the IC50 in data set [7] was 0.095 µM; in data set [8], over 57 µM.
In the case of `O=C(O)c1csc(-n2nc(-c3ccccc3)cc2C(F)F)n1`, the inhibition result in data set [5] and in data set [6] was “inactive” in each case. In addition, the 50% inhibitory concentration (IC50) in data set [7] and in data set [8] was over 57 µM in each case.
Turning to `Nc1cc(-c2ccccc2)nn1-c1nc(C(=O)O)cs1`, the inhibition result in data set [5] and in data set [6] was “inactive” each time. Further, the concentration for half-maximal inhibition (IC50) in data set [7] was 26.7 µM; in data set [8], over 57 µM.
With `COc1ccc(-c2cc(O)n(-c3nc(C(=O)O)cs3)n2)cc1`, the inhibition entry in data set [5] and in data set [6] was “inactive” in each case. Moreover, the results for the IC50 in data set [7] and in data set [8] were 0.229 µM and over 57 µM, respectively.

The values above are taken from ChEMBL document CHEMBL4028893, “Discovery and Optimization of Potent, Cell-Active Pyrazole-Based Inhibitors of Lactate Dehydrogenase (LDH)” (J Med Chem, 2017).
